Read-outs that look alike come from different tables or passages of the source.
Experiments:
Assay type in all cases: cell-based
IGROV-ET = assay: SRB colorimetric cell growth inhibition assay, IGROV-ET (ET-743 resistant); conditions: Homo sapiens; for GI50: GI=growth inhibition, read-out: GI50 IGROV-ET; for CC50: LC=cell killing (cytotoxic effect); for IC (TGI): TGI=total growth inhibition (cytostatic effect), read-out: TGI IGROV-ET
Summary of the method: (§1)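 After uninterrupted treatment, cultures are fixed and stained with sulforhodamine B, and absorbance reflects cell growth and viability. Each value represents the average of triplicate wells with SD.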

LNCaP = assay: SRB colorimetric cell growth inhibition assay, LNCaP; conditions: Homo sapiens, LNCaP, LN-caP; for GI50: GI=growth inhibition, read-out: GI50 LN-caP; for CC50: LC=cell killing (cytotoxic effect), read-out: LC50 LN-caP; for IC (TGI): TGI=total growth inhibition (cytostatic effect), read-out: TGI LN-caP
Summary of the method: as §1

LoVo = assay: SRB colorimetric cell growth inhibition assay, LoVo; conditions: Homo sapiens; for GI50: GI=growth inhibition, read-out: GI50 LOVO; for CC50: LC=cell killing (cytotoxic effect); for IC (TGI): TGI=total growth inhibition (cytostatic effect), read-out: TGI LOVO
Summary of the method: as §1

SK-BR-3 = assay: SRB colorimetric cell growth inhibition assay, SK-BR-3; conditions: Homo sapiens, SK-BR-3, SK-BR-3; for GI50: GI=growth inhibition, read-out: GI50 SK-BR-3; for CC50: LC=cell killing (cytotoxic effect), read-out: LC50 SK-BR-3; for IC (TGI): TGI=total growth inhibition (cytostatic effect), read-out: TGI SK-BR-3
Summary of the method: as §1

HT-29 = assay: SRB colorimetric cell growth inhibition assay, HT-29; conditions: Homo sapiens; for GI50: GI=growth inhibition, read-out: GI50 HT-29; for CC50: LC=cell killing (cytotoxic effect); for IC (TGI): TGI=total growth inhibition (cytostatic effect), read-out: TGI HT-29
Summary of the method: as §1

SK-MEL-28 = assay: SRB colorimetric cell growth inhibition assay, SK-MEL-28
Summary of the method: as §1

PANC-1 = assay: SRB colorimetric cell growth inhibition assay, PANC-1; conditions: Homo sapiens; for GI50: GI=growth inhibition, read-out: GI50 PANC-1; for CC50: LC=cell killing (cytotoxic effect); for IC (TGI): TGI=total growth inhibition (cytostatic effect), read-out: TGI PANC-1
Summary of the method: as §1

DU-145 = assay: SRB colorimetric cell growth inhibition assay, DU-145; conditions: Homo sapiens, DU-145, DU-145; for GI50: GI=growth inhibition, read-out: GI50 DU-145; for CC50: LC=cell killing (cytotoxic effect), read-out: LC50 DU-145; for IC (TGI): TGI=total growth inhibition (cytostatic effect), read-out: TGI DU-145
Summary of the method: as §1

SKOV-3 = assay: SRB colorimetric cell growth inhibition assay, SKOV-3; conditions: Homo sapiens; for GI50: SK-OV-3, SKOV-3, GI=growth inhibition, read-out: GI50 SKOV-3; for IC (TGI): TGI=total growth inhibition (cytostatic effect), read-out: TGI SKOV-3
Source text: (§2) Inhibition of Cell Growth by Colorimetric Assay.
(§3) A colorimetric type of assay, using sulforhodamine B (SRB) reaction has been adapted for a quantitative measurement of cell growth and viability (following the technique described by P. A. Skehan, et al., J. Natl. Cancer Inst. 1990, 82, 1107-1112).
(§4) This form of assay employs 96 well cell culture microplates of 9 mm diameter (T. Mosmann et al., J. of Immunological Methods 1983, 65, 55-63; G. T. Faircloth et al., J. of Tissue and Culture Methods 1988, 11, 201-205).
(§5) Most of the cell lines are obtained from American Type Culture Collection (ATCC) derived from different human cancer types.
(§6) The values for mean +/− SD of data from triplicate wells are calculated. Some parameters for cellular responses can be calculated: GI=growth inhibition, TGI=total growth inhibition (cytostatic effect) and LC=cell killing (cytotoxic effect).

K-562 = assay: SRB colorimetric cell growth inhibition assay, K-562; conditions: Homo sapiens, K562, K-562; for GI50: GI=growth inhibition, read-out: GI50 K-562; for CC50: LC=cell killing (cytotoxic effect), read-out: LC50 K-562; for IC (TGI): TGI=total growth inhibition (cytostatic effect), read-out: TGI K-562
Summary of the method: as §1

A-549 = assay: SRB colorimetric cell growth inhibition assay, A-549; conditions: for GI50: GI=growth inhibition, read-out: GI50 A-549; for CC50: LC=cell killing (cytotoxic effect); for IC (TGI): TGI=total growth inhibition (cytostatic effect), read-out: TGI A-549
Summary of the method: as §1

IGROV = assay: SRB colorimetric cell growth inhibition assay, IGROV; conditions: Homo sapiens, IGROV; for GI50: GI=growth inhibition, read-out: GI50 IGROV; for CC50: LC=cell killing (cytotoxic effect), read-out: LC50 IGROV; for IC (TGI): TGI=total growth inhibition (cytostatic effect), read-out: TGI IGROV
Summary of the method: as §1

LoVo-Dox = assay: SRB colorimetric cell growth inhibition assay, LoVo-Dox (MDR)
Summary of the method: as §1

H-MEC-1 = assay: SRB colorimetric cell growth inhibition assay, H-MEC-1; conditions: Homo sapiens, TGI=total growth inhibition (cytostatic effect)
Source text: as §2, §3, §4, §5, §6

[1] = IGROV-ET, read-out: LC50 IGROV-ET
[2] = HT-29, HT-29, read-out: LC50 HT-29
[3] = Homo sapiens, SK-MEL-28, MEL-28; GI=growth inhibition; read-out: GI50 MEL-28
[4] = Homo sapiens, SK-MEL-28, MEL-28; LC=cell killing (cytotoxic effect); read-out: LC50 MEL-28
[5] = Homo sapiens, SK-MEL-28, MEL-28; TGI=total growth inhibition (cytostatic effect); read-out: TGI MEL-28
[6] = PANC-1, PANC-1, read-out: LC50 PANC-1
[7] = SK-OV-3, SKOV-3, LC=cell killing (cytotoxic effect), read-out: LC50 SKOV-3
[8] = Homo sapiens, A549, A-549, read-out: LC50 A-549
[9] = Homo sapiens, LOVO-DOX; GI=growth inhibition; read-out: GI50 LOVO-DOX
[10] = Homo sapiens, LOVO-DOX; LC=cell killing (cytotoxic effect); read-out: LC50 LOVO-DOX
[11] = Homo sapiens, LOVO-DOX; TGI=total growth inhibition (cytostatic effect); read-out: TGI LOVO-DOX

SMILES: COc1cc(-c2c3c4cc(OC)c(OC(=O)[C@H](C)NC(=O)OC(C)(C)C)cc4oc(=O)c3n3ccc4cc(OC(=O)[C@H](C)NC(=O)OC(C)(C)C)c(OC)cc4c23)ccc1OC(=O)[C@H](C)NC(=O)OC(C)(C)C [Compound 41]
- GI50 (IGROV-ET; IGROV-ET): 0.188 µM
- CC50 (IGROV-ET; [1]): 9.87 µM
- IC (TGI) (IGROV-ET; IGROV-ET): 0.852 µM
- GI50 (LNCaP): 2.1 µM
- CC50 (LNCaP): 9.87 µM
- IC (TGI) (LNCaP): 6.47 µM
- GI50 (LoVo; LoVo): 3.31 µM
- CC50 (LoVo; LoVo, read-out: LC50 LOVO): 9.87 µM
- IC (TGI) (LoVo; LoVo): 9.87 µM
- GI50 (SK-BR-3): 1.62 µM
- CC50 (SK-BR-3): 9.87 µM
- IC (TGI) (SK-BR-3): 4.85 µM
- GI50 (HT-29; HT-29, HT-29): 3.24 µM
- CC50 (HT-29; [2]): 9.87 µM
- IC (TGI) (HT-29; HT-29, HT-29): 8.89 µM
- GI50 (SK-MEL-28; [3]): 1.86 µM
- CC50 (SK-MEL-28; [4]): 9.43 µM
- IC (TGI) (SK-MEL-28; [5]): 4.19 µM
- GI50 (PANC-1; PANC-1, PANC-1): 2.48 µM
- CC50 (PANC-1; [6]): 9.87 µM
- IC (TGI) (PANC-1; PANC-1, PANC-1): 9.87 µM
- GI50 (DU-145): 0.679 µM
- CC50 (DU-145): 9.87 µM
- IC (TGI) (DU-145): 9.87 µM
- GI50 (SKOV-3): 5.95 µM
- CC50 (SKOV-3; [7]): 9.87 µM
- IC (TGI) (SKOV-3; SK-OV-3, SKOV-3): 9.87 µM
- GI50 (K-562): 1.77 µM
- CC50 (K-562): 8.02 µM
- IC (TGI) (K-562): 3.76 µM
- GI50 (A-549; Homo sapiens, A549, A-549): 2.42 µM
- CC50 (A-549; [8]): 9.87 µM
- IC (TGI) (A-549; Homo sapiens, A549, A-549): 8.01 µM
- GI50 (IGROV): 0.0917 µM
- CC50 (IGROV): 4.7 µM
- IC (TGI) (IGROV): 0.492 µM
- GI50 (LoVo-Dox; [9]): 4.2 µM
- CC50 (LoVo-Dox; [10]): 9.87 µM
- IC (TGI) (LoVo-Dox; [11]): 9.87 µM

SMILES: COc1cc(-c2c3n(c4c(=O)oc5cc(OC(=O)[C@H](C)N)c(OC)cc5c24)CCc2cc(OC(=O)[C@H](C)N)c(OC)cc2-3)ccc1OC(=O)[C@H](C)N [Compound 42]
- GI50 (IGROV-ET; IGROV-ET): 0.238 µM
- CC50 (IGROV-ET; [1]): 6.62 µM
- IC (TGI) (IGROV-ET; IGROV-ET): 0.678 µM
- GI50 (LNCaP): 0.377 µM
- CC50 (LNCaP): 4.91 µM
- IC (TGI) (LNCaP): 1.41 µM
- GI50 (LoVo; LoVo): 0.463 µM
- CC50 (LoVo; LoVo, read-out: LC50 LOVO): 9.46 µM
- IC (TGI) (LoVo; LoVo): 3.63 µM
- GI50 (SK-BR-3): 2 µM
- CC50 (SK-BR-3): 8.04 µM
- IC (TGI) (SK-BR-3): 4.01 µM
- GI50 (HT-29; HT-29, HT-29): 3.91 µM
- CC50 (HT-29; [2]): 9.46 µM
- IC (TGI) (HT-29; HT-29, HT-29): 9.46 µM
- GI50 (SK-MEL-28; [3]): 1.23 µM
- CC50 (SK-MEL-28; [4]): 8.94 µM
- IC (TGI) (SK-MEL-28; [5]): 3.32 µM
- GI50 (PANC-1; PANC-1, PANC-1): 0.732 µM
- CC50 (PANC-1; [6]): 9.46 µM
- IC (TGI) (PANC-1; PANC-1, PANC-1): 4.06 µM
- GI50 (DU-145): 0.365 µM
- CC50 (DU-145): 9.46 µM
- IC (TGI) (DU-145): 2.28 µM
- GI50 (SKOV-3): 1.24 µM
- CC50 (SKOV-3; [7]): 9.46 µM
- IC (TGI) (SKOV-3; SK-OV-3, SKOV-3): 4.44 µM
- GI50 (K-562): 0.313 µM
- CC50 (K-562): 5.42 µM
- IC (TGI) (K-562): 1.79 µM
- GI50 (A-549; Homo sapiens, A549, A-549): 0.735 µM
- CC50 (A-549; [8]): 9.46 µM
- IC (TGI) (A-549; Homo sapiens, A549, A-549): 2.99 µM
- GI50 (IGROV): 0.185 µM
- CC50 (IGROV): 2.83 µM
- IC (TGI) (IGROV): 0.56 µM
- GI50 (LoVo-Dox; [9]): 0.395 µM
- CC50 (LoVo-Dox; [10]): 9.46 µM
- IC (TGI) (LoVo-Dox; [11]): 2.32 µM

SMILES: COc1cc(-c2c3n(c4c(=O)oc5cc(OC(=O)[C@H](C)NC(=O)OC(C)(C)C)c(OC)cc5c24)CCc2c-3cc(OC)c(OC)c2OC(=O)[C@H](C)NC(=O)OC(C)(C)C)ccc1OC(=O)[C@H](C)NC(=O)OC(C)(C)C [Compound 46]
- CC50 (IGROV-ET; read-out: LC50 IGROV-ET, IGROV-ET): 9.57 µM
- CC50 (LoVo; LoVo, read-out: LC50 LOVO, LOVO): 9.57 µM
- IC (TGI) (LoVo; LoVo): 0.00932 µM
- IC (TGI) (LoVo; LOVO): 9.57 µM
- CC50 (HT-29; HT-29, read-out: LC50 HT-29, HT-29): 9.57 µM
- IC (TGI) (HT-29; HT-29): 9.57 µM
- IC (TGI) (SK-MEL-28; [5]): 0.00417 µM
- IC (TGI) (SK-MEL-28; Homo sapiens, SK-MEL-28; MEL-28; TGI=total growth inhibition (cytostatic effect); read-out: TGI MEL-28): 9.57 µM
- CC50 (PANC-1; PANC-1, read-out: LC50 PANC-1, PANC-1): 9.57 µM
- IC (TGI) (H-MEC-1; HMEC-1, read-out: TGI H-MEC-1, H-MEC-1): 9.57 µM
- IC (TGI) (H-MEC-1; HMEC-1, H-MEC-1, read-out: TGI H-MEC-1): 0.000847 µM
- CC50 (SKOV-3; SK-OV-3, read-out: LC50 SKOV-3): 9.57 µM
- GI50 (A-549; A-549): 2.33 µM
- GI50 (A-549; Homo sapiens, A549, A-549): 1.31 µM
- IC (TGI) (A-549; Homo sapiens, A549, A-549): 9.57 µM
- CC50 (A-549; Homo sapiens, A549, read-out: LC50 A-549, A-549): 9.57 µM
- IC (TGI) (LoVo-Dox; [11]): 0.0957 µM
- CC50 (LoVo-Dox; Homo sapiens, read-out: LC50 LOVO-DOX, LOVO-DOX; LC=cell killing (cytotoxic effect)): 9.57 µM
- IC (TGI) (LoVo-Dox; Homo sapiens; LOVO-DOX; TGI=total growth inhibition (cytostatic effect); read-out: TGI LOVO-DOX): 9.57 µM

Source: US7396837B2, “Antitumoral analogs of lamellarins” (Pharma Mar, S.A.U., priority 2002, dated 2008)
